Assay results published in PMC11141316, “Anilino-1,4-naphthoquinones as potent mushroom tyrosinase inhibitors: in vitro and in silico studies” (Journal of Enzyme Inhibition and Medicinal Chemistry, 2024).
Read-outs that look alike come from different tables or passages of the source.

Tests used:
mushroom tyrosinase [1] = conditions: read-out: IC50 (previously reported tyrosinase inhibitor); cited from earlier work
mushroom tyrosinase [2] = assay: Mushroom tyrosinase activity assay (L-DOPA to dopachrome); assay type: biochemical; conditions: L-DOPA substrate, 37 °C, pH 6.8, mean ± SEM, n = 3
Method: Enzymatic conversion of L-DOPA into dopachrome by mushroom tyrosinase (Sigma Aldrich, St. Louis, MO) was detected using spectrophotometric evaluation. The mushroom tyrosinase activity assay was performed according to a previous report. In this study, the enzyme assay was conducted at 37 °C, which is in the optimal temperature range of tyrosinase, as per previous studies[20]^,[21]. The enzyme, substrate, and inhibitor(s) were dissolved in potassium phosphate buffer at a pH of 6.8, which is in the optimal pH range of tyrosinase. Note that, the solvent for preparing the stock solution of inhibitors was dimethyl sulphoxide. […] Then, the substrate (10 μL of 50 mM of L-DOPA) was introduced to the samples, followed by incubation at 37 °C for 15 min in darkness. The absorbance was later measured at 450 nm. The experiment was conducted in triplicate. IC50 values were determined through dose–response curve analysis using GraphPad Prism 10.2.2 software (La Jolla, CA).
Data are presented as the mean ± standard error of the mean (SEM) from three independent experiments (n = 3). Statistical comparisons between two groups were conducted using the t-test, with a p value of <0.05 considered to be statistically significant.

EGFR = tested on: EGFR; parameters: method as in PMID 35664590, PMID 25019480; conditions: cited from earlier work

SMILES | IC50 (mushroom tyrosinase [1]) [µM] | IC50 (mushroom tyrosinase [2]) [µM] | other results
C[C@@H]1[C@H](O)[C@@H](C)/C=C/C=C/C=C/C=C/C=C/C=C/C=C/[C@H](O[C@@H]2O[C@H](C)[C@@H](O)[C@H](N)[C@@H]2O)C[C@@H]2O[C@](O)(C[C@@H](O)C[C@@H](O)[C@H](O)CC[C@@H](O)C[C@@H](O)CC(=O)O[C@H]1C)C[C@H](O)[C@H]2C(=O)O [amphotericin B] | 263 ± 11.8 |  | 
O=C1C=C(Nc2ccccc2)C(=O)c2ccccc21 [compound 1] |  | 151 ± 4.39 | 
Cc1ccc(NC2=C(Cl)C(=O)c3ccccc3C2=O)cc1 [compound 3] |  |  | EGFR inhibitory potency relative to erlotinib (EGFR): fourfold higher potency than erlotinib
O=C1C(Cl)=C(Nc2ccc(Br)cc2)C(=O)c2ccccc21 [compound 5] |  | 138 ± 6.07 | 
CC(=O)c1cccc(NC2=C(Cl)C(=O)c3ccccc3C2=O)c1 [compound 10] |  | 112 ± 9.18 | 
CC1(C)C=Cc2c(O)ccc(C3=Cc4ccc(O)cc4OC3)c2O1 [glabrene] | 7600 |  | 
O=c1c(O)c(-c2ccc(O)cc2O)oc2cc(O)cc(O)c12 [morin] | 2320 |  | 
